Usually inhibition stands for the drop in the measured response relative to a control, in per cent.

Assay [1] concerns the target T1, Endonuclease 8-like 2 (Homo sapiens) (UniProt Q969S2).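 Also: fluorescence at 594 nm reports NEIL2 cutting and release of a quenched double-stranded DNA oligo substrate, reduced signal read as inhibition.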
T1 sequence (whole entry): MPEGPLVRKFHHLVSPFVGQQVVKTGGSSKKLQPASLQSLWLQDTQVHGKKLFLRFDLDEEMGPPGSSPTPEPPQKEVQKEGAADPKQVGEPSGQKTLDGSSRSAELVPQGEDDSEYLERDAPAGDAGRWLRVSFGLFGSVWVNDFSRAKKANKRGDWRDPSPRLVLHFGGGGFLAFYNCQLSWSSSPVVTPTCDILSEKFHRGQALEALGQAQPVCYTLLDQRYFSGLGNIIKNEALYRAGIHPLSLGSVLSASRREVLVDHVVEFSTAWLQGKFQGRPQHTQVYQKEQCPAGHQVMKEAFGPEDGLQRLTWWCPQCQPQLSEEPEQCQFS
The conditions noted are these: Compound Concentration 10.0 uM.
Description: Inhibition of NEIL2 by quantifying inhibition of NEIL2-mediated cleavage and dissociation of quenched duplex DNA oligonucleotides, measured as fluorescence at 594 nm.

For assay [2], the target named is T2, Adenine DNA glycosylase (Homo sapiens) (UniProt Q9UIF7).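 Also: human MUTYH activity read as 594 nm fluorescence from cleavage and release of a quenched DNA duplex, coupled with APE1 for strand incision, lower signal meaning inhibition.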
T2 sequence (whole entry): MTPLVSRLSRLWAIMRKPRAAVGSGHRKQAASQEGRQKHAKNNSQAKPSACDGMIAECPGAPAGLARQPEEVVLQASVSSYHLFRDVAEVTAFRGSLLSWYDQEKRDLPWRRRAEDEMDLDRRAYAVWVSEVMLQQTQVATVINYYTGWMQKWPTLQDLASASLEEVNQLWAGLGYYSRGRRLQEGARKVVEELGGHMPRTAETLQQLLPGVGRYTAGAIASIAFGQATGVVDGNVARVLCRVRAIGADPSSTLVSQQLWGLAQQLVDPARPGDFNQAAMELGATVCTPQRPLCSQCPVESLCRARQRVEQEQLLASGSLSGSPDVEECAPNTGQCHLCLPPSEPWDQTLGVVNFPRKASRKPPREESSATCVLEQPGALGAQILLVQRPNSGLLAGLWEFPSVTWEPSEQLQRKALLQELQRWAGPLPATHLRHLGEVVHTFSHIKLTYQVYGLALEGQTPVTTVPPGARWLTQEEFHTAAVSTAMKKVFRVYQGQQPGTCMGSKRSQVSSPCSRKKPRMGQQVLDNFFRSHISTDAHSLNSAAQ
The conditions noted are these: Compound Concentration 10.0 uM, Hit No.
Description: Inhibition of MUTYH by quantifying inhibition of MUTYH-mediated cleavage and dissociation of quenched duplex DNA oligonucleotides, measured as fluorescence at 594 nm. To generate a functional strand incision and increase turn-over this assay is coupled to APE1.

The target in assay [3] is T3, Single-strand selective monofunctional uracil DNA glycosylase (Homo sapiens) (UniProt Q53HV7).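 Also: enzymatic SMUG1 assay coupled with APE1, reading fluorescence at 594 nm released when a quenched double-stranded DNA oligonucleotide substrate is cleaved and separated.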
T3 sequence (whole entry): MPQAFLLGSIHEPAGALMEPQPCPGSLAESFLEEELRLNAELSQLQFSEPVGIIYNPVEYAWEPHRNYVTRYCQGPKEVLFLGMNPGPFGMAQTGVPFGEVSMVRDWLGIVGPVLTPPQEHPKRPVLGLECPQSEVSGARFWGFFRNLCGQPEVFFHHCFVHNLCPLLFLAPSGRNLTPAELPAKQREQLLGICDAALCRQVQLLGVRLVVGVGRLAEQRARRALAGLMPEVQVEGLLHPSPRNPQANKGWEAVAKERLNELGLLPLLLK
The following applies: Compound Concentration 10.0 uM.
Description: Inhibition of SMUG1 by quantifying inhibition of SMUG1-mediated cleavage and dissociation of quenched duplex DNA oligonucleotides, measured as fluorescence at 594 nm. To generate a functional strand incision and increase turn-over this assay is coupled to APE1.

The target of assay [4] is G/T mismatch-specific thymine DNA glycosylase (Homo sapiens) (UniProt Q13569). The following applies: Compound Concentration 10.0 uM.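 Also: human TDG cleavage of quenched duplex DNA oligonucleotides coupled to APE1, strand release read as fluorescence at 594 nm, inhibition of TDG activity.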
Description: Inhibition of TDG by quantifying inhibition of TDG-mediated cleavage and dissociation of quenched duplex DNA oligonucleotides, measured as fluorescence at 594 nm. To generate a functional strand incision and increase turn-over this assay is coupled to APE1.
In assay [5] the target is N-glycosylase/DNA lyase (Homo sapiens) (UniProt O15527). The conditions noted are these: Compound Concentration 10.0 uM.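 Also: OGG1 cleavage of a quenched duplex DNA oligonucleotide, coupled to APE1 for strand incision, read as fluorescence at 594 nm.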
Description: Inhibition of OGG1 by quantifying inhibition of OGG1-mediated cleavage and dissociation of quenched duplex DNA oligonucleotides, measured as fluorescence at 594 nm. To generate a functional strand incision and increase turn-over this assay is coupled to APE1.
Assay [6] deals with DNA-3-methyladenine glycosylase (Homo sapiens) (UniProt P29372). The conditions noted are these: Compound Concentration 10.0 uM.
Description: Inhibition of MPG by quantifying inhibition of MPG-mediated cleavage and dissociation of quenched duplex DNA oligonucleotides, measured as fluorescence at 594 nm. To generate a functional strand incision and increase turn-over this assay is coupled to APE1.
The target in assay [7] is Endonuclease 8-like 1 (Homo sapiens) (UniProt Q96FI4). The following applies: Compound Concentration 10.0 uM.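 Also: fluorescence at 594 nm from quenched duplex DNA oligonucleotides released by NEIL1 cleavage and strand separation, reported as reduction of this enzyme activity.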
Description: Inhibition of NEIL1 by quantifying inhibition of NEIL1-mediated cleavage and dissociation of quenched duplex DNA oligonucleotides, measured as fluorescence at 594 nm.
Assay [8] concerns the target Methyl-CpG-binding domain protein 4 (Homo sapiens) (UniProt O95243). The following applies: Compound Concentration 10.0 uM, Hit No.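 Also: MBD4 activity read as fluorescence at 594 nm from cleavage and release of a quenched duplex DNA oligonucleotide, with APE1 coupled to incise the strand and raise turnover.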
Description: Inhibition of MBD4 by quantifying inhibition of MBD4-mediated cleavage and dissociation of quenched duplex DNA oligonucleotides, measured as fluorescence at 594 nm. To generate a functional strand incision and increase turn-over this assay is coupled to APE1.
Assay [9] has as its target Uracil-DNA glycosylase (Homo sapiens) (UniProt P13051). The conditions noted are these: Compound Concentration 10.0 uM, Hit No.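 Also: UNG excision on a quenched double-stranded DNA oligo probe, with APE1 added for strand incision and turnover, read as fluorescence at 594 nm as strands separate.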
Description: Inhibition of UNG by quantifying inhibition of UNG-mediated cleavage and dissociation of quenched duplex DNA oligonucleotides, measured as fluorescence at 594 nm. To generate a functional strand incision and increase turn-over this assay is coupled to APE1.
The target of assay [10] is T4, Endonuclease III-like protein 1 (Homo sapiens) (UniProt P78549).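 Also: enzyme assay tracking NTHL1 cutting and release of a quenched double-stranded DNA oligo substrate, read as fluorescence at 594 nm.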
T4 sequence (whole entry): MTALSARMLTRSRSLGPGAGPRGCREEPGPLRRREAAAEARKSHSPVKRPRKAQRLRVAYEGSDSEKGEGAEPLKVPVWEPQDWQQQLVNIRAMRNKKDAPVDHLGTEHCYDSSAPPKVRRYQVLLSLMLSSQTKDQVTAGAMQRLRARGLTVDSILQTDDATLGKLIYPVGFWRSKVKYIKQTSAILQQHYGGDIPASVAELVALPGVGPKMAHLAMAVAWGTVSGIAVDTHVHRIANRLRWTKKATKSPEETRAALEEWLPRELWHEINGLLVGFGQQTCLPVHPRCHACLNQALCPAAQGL
The conditions noted are these: Compound Concentration 10.0 uM.
Description: Inhibition of NTHL1 by quantifying inhibition of NTHL1-mediated cleavage and dissociation of quenched duplex DNA oligonucleotides, measured as fluorescence at 594 nm.

SMILES strings stand for the structures.

Sequence of DNA-3-methyladenine glycosylase (Homo sapiens) (P29372 whole entry): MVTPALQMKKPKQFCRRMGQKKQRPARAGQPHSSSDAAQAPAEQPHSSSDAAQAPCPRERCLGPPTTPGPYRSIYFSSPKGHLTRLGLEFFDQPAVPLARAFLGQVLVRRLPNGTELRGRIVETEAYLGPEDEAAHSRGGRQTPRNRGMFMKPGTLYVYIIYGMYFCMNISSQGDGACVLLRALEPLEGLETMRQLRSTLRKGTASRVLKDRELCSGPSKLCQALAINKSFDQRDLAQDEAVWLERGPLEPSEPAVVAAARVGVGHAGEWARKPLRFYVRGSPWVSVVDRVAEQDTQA
Sequence of G/T mismatch-specific thymine DNA glycosylase (Homo sapiens) (Q13569 whole entry): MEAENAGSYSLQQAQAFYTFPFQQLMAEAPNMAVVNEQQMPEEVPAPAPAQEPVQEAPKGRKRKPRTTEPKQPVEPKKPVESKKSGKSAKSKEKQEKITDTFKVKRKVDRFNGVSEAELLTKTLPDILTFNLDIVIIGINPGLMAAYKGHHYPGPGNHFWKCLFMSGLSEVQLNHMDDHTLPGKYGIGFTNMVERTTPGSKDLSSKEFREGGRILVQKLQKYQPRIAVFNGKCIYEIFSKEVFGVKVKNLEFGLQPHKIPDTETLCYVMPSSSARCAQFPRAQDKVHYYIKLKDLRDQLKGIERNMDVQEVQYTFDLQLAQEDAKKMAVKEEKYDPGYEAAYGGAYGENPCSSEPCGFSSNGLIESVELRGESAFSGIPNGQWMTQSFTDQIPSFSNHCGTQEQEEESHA
Sequence of Endonuclease 8-like 1 (Homo sapiens) (Q96FI4 whole entry, the tested form may be a part): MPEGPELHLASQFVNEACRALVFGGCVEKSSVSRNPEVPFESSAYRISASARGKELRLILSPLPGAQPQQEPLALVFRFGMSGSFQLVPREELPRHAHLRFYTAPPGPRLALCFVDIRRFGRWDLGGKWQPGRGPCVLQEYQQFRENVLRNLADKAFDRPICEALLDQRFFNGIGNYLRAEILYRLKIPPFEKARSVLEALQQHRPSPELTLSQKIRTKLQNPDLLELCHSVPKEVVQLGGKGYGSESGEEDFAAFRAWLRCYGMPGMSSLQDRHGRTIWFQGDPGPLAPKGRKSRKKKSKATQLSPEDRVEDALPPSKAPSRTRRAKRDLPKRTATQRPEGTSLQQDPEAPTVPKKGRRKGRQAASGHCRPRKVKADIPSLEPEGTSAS
Sequence of Methyl-CpG-binding domain protein 4 (Homo sapiens) (O95243 whole entry, the tested form may be a part): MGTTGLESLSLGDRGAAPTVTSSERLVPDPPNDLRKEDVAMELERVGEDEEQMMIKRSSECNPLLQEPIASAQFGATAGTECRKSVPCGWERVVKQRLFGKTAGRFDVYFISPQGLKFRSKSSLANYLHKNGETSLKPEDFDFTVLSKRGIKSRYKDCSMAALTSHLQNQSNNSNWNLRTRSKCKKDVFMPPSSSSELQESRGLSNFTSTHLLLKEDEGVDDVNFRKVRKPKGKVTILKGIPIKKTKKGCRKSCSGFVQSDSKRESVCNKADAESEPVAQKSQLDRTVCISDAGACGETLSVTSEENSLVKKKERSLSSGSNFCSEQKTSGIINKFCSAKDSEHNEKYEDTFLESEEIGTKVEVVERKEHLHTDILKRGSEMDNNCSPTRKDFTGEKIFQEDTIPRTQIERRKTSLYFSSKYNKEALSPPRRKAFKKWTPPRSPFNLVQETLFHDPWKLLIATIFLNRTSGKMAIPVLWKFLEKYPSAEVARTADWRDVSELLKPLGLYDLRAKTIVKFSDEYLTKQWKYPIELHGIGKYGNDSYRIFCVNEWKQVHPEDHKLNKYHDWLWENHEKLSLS
Sequence of Uracil-DNA glycosylase (Homo sapiens) (P13051 whole entry): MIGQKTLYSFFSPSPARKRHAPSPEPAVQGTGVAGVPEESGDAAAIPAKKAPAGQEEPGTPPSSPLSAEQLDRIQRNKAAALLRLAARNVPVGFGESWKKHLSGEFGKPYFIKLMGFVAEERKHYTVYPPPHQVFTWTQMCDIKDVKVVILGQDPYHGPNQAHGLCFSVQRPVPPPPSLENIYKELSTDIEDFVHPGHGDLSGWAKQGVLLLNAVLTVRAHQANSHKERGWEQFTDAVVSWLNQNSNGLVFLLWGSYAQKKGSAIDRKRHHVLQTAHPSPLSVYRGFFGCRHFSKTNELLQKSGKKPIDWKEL
Sequence of N-glycosylase/DNA lyase (Homo sapiens) (O15527 whole entry): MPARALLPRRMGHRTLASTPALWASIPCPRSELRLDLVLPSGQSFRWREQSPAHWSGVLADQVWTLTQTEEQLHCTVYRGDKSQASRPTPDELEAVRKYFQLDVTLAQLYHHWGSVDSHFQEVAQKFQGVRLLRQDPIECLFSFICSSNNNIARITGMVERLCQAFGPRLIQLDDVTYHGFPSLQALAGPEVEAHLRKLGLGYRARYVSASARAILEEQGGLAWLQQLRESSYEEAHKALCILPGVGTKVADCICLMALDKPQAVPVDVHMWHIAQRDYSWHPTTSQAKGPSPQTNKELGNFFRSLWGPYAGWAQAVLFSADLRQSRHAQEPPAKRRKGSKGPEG

With `CNC1(C)C2CCC(C2)C1(C)C` (stereo not given), the inhibition in [1] (Hit No) was -4.94%; in assay [2], -4.75%; in [3] (Hit No), 1.51%; in [4] (Hit No), 10.2%; in assay [5] (Hit No), -5.59%; in assay [6] (Hit No), 6.27%. Further, the inhibition in [7] (Hit No) is -4.14%; in assay [8], -0.892%; in [9], -5.36%; in assay [10] (Hit No) it was -2.73%.
In the case of `CCCOc1ccc2[nH]cc(C3=CCNCC3)c2n1`, the inhibition in assay [1] (Hit No) was -8.25%; in assay [2], 0.205%; in [3] (Hit No), -1.82%; in assay [4] (Hit No) it was 11.1%; in assay [5] (Hit No) it was -9.55%; in assay [6] (Hit No), -2.25%. In addition, the inhibition in [7] (Hit No) is 0.306%; in assay [8], -0.485%; in [9], -5.52%; in assay [10] (Hit No), 7.17%.
Turning to `C[C@]1(C(=O)N(CCCC(=O)O)Cc2cccc(Cl)c2)CCN1C(=O)c1csc2ccccc12`, the inhibition in [1] (Hit No) is -3.73%; in [2] it was 11.5%; in [3] (Hit No) it was 7.04%; in assay [4] (Hit No), 25.5%; in [5] (Hit No), 3.32%; in assay [6] (Hit No) it was -1.32%. Also, the inhibition in assay [7] (Hit No) was 3.5%; in [8] it was -2.17%; in [9], -7.61%; in assay [10] (Hit No), -9.8%.
With `Nc1ncnc2c1ncn2[C@@H]1O[C@H](COP(=O)(O)OP(=O)(O)O)[C@@H](O)[C@H]1O`, the inhibition in assay [1] (Hit No) is 1.69%; in assay [2], 18.3%; in assay [3] (Hit No), -0.127%; in assay [4] (Hit No), 26.4%; in assay [5] (Hit No), -9.66%; in assay [6] (Hit No), -6.47%. Besides, the inhibition in [7] (Hit No) was 8.75%; in assay [8], 10.8%; in assay [9] it was -1.19%; in [10] (Hit No), 11.3%.
As to `CN1CCN(c2ccc(Nc3c4ccccc4nc4ccccc34)cc2)CC1`, the inhibition came to 90.9% in assay [1] (Hit Yes); 113% in assay [2]; 78.7% in [3] (Hit Yes); 73% in assay [4] (Hit Yes); 84.8% in assay [5] (Hit Yes); 90.3% in assay [6] (Hit Yes). Moreover, the inhibition in [7] (Hit Yes) is 65.5%; in [8], 88.7%; in assay [9], 12.9%; in [10] (Hit Yes), 84.8%.
For `CCC(C)(C)/N=C(\NC#N)Nc1cccnc1`, the inhibition in assay [1] (Hit No) is -1.62%; in assay [2], 4.93%; in assay [3] (Hit No), -2.33%; in [4] (Hit No) it was 5.61%; in assay [5] (Hit No) it was -5.35%; in [6] (Hit No) it was 6.03%. In addition, the inhibition in assay [7] (Hit No) was 1.64%; in assay [8] it was 4.69%; in [9], -3.3%; in assay [10] (Hit No), 21.2%.
Turning to `COc1ccc2cc(S(=O)(=O)N[C@H](CC(=O)N[C@H](Cc3ccc(CN4[C@H](C)CCC[C@@H]4C)cc3)C(=O)N(C)C(C)C)c3ccc4c(c3)OCO4)ccc2c1`, the inhibition in [1] (Hit No) is 10.8%; in assay [2], -1.26%; in assay [3] (Hit No), -5.31%; in assay [4] (Hit No), 44.9%; in assay [5] (Hit No), -6.96%; in assay [6] (Hit No) it was 30%. For the same compound, the inhibition in assay [7] (Hit No) came to 12.6%; in assay [8] it was 19.6%; in assay [9] it was 3.72%; in assay [10] (Hit No), 7.79%.
For `COc1ccccc1N1CCN(C[C@@H](C(=O)NC(C)(C)C)c2ccccc2)CC1`, the inhibition was -2.13% in assay [1] (Hit No); -2.23% in [2]; 7.78% in assay [3] (Hit No); 24.3% in assay [4] (Hit No); -6.28% in [5] (Hit No); 15.3% in assay [6] (Hit No). Further, the inhibition is 15.4% in assay [7] (Hit No), 17.7% in assay [8], -2.81% in [9] and 17.1% in [10] (Hit No).
Consider `O=C1C[C@@H]2OCC=C3CN4CC[C@]56c7ccccc7N1[C@H]5[C@H]2[C@H]3C[C@H]46`, for which the inhibition in assay [1] (Hit No) was -1.88%; in assay [2], 38.1%; in assay [3] (Hit No), -0.692%; in assay [4] (Hit No) it was 11.6%; in [5] (Hit No) it was -7.16%; in assay [6] (Hit No) it was -1.64%. Further, the inhibition in assay [7] (Hit No) is 0.602%; in assay [8], 11.5%; in assay [9] it was -3.11%; in assay [10] (Hit No), 10.5%.
For the compound `Cc1cc(C)c(N)c(C#Cc2cccc(F)c2)n1`, the inhibition in assay [1] (Hit No) is 5.26%; in assay [2], 4.63%; in assay [3] (Hit No), 6.75%; in assay [4] (Hit No), 17.2%; in assay [5] (Hit No), 4.23%; in assay [6] (Hit No), 3.92%. The inhibition was 0.982% in [7] (Hit No), 6.71% in assay [8], -6.05% in [9] and -3.21% in [10] (Hit No).
For `NC(=O)NN=Cc1ccc(Oc2ccc(F)cc2)cc1`, the inhibition in assay [1] (Hit No) is -3.41%; in assay [2], 8.22%; in assay [3] (Hit No) it was -4.59%; in [4] (Hit No), 11.3%; in assay [5] (Hit No), -9.24%; in assay [6] (Hit No), 2.76%. Moreover, the inhibition was 9.49% in assay [7] (Hit No), -2.63% in [8], -5.79% in assay [9] and 0.568% in [10] (Hit No).
Take `CCc1cc(C(C)=O)c(O)cc1OCCCCCC(C)(C)c1nn[nH]n1`: the inhibition in [1] (Hit No) is -8.97%; in [2] it was 7.7%; in assay [3] (Hit No), 0.79%; in [4] (Hit No), 21.1%; in [5] (Hit No) it was 16.1%; in assay [6] (Hit No), 13%. In addition, the inhibition in [7] (Hit No) is -0.204%; in [8], 24%; in assay [9] it was -4.34%; in assay [10] (Hit No), 9.99%.
Take `COc1cc([N+](=O)[O-])ccc1NC(=O)c1ccccc1O`: the inhibition in [1] (Hit No) was 8.06%; in assay [2] it was 4.12%; in [3] (Hit No) it was 9.42%; in assay [4] (Hit No) it was 9.09%; in assay [5] (Hit No), -1.87%; in assay [6] (Hit No) it was -4.2%. Besides, the inhibition in assay [7] (Hit No) is 3.86%; in [8], 0.275%; in assay [9], -6.06%; in assay [10] (Hit No), -0.258%.
In the case of `COCCOCCn1nc2c(c1C)-c1c(Cl)ccc3c1c(C)c(C(=O)O)n3CCCOc1cc(cc3c(F)c(Cl)ccc13)CCc1cc(nn1C)CSC2`, the inhibition in assay [1] (Hit No) came out at 5.63%; in [2], 36%; in assay [3] (Hit No) it was 17.3%; in assay [4] (Hit No), 59.9%; in [5] (Hit No), 28.8%; in assay [6] (Hit No) it was 52.2%. In addition, the inhibition in assay [7] (Hit No) was -6.35%; in [8] it was 77.7%; in assay [9], 9.88%; in [10] (Hit No) it was -0.959%.
On to `N#Cc1c(O)nc(SCc2cccc(F)c2F)nc1C1CC1`, for which the inhibition in assay [1] (Hit No) was found to be 6.5%; in assay [2], 43.4%; in [3] (Hit No), 14.3%; in assay [4] (Hit No), 26.8%; in [5] (Hit No), 21.3%; in assay [6] (Hit No) it was 5.35%. Besides, the inhibition in assay [7] (Hit No) was -3.76%; in assay [8] it was 31%; in [9], -3.9%; in assay [10] (Hit No) it was 17.3%.

For the origin of these results see ChEMBL document CHEMBL5665443, “Enzyme Inhibitor Single Concentration assay results for EUbOPEN Chemogenomics Library” (2024).
